Data taken from patent US9656996B2, “Fused heterocyclic compound, preparation method therefor, pharmaceutical composition, and uses thereof” (SHANGHAI YINGLI PHARMACEUTICAL CO., LTD., priority 2013, dated 2017).

What was measured:
PI3Kβ = PI3Kβ (Homo sapiens (Human), UniProt P42338); assay: PI3Kβ enzymatic inhibitory activity IC50 assay; format: biochemical; details: selectivity ratio
Procedure: (§1) 1. Buffer preparation: 50 mM HEPES, pH 7.5, 3 mM MgCl2, 1 mM EGTA, 100 mM NaCl, 0.03% CHAPS.
(§2) 2. The compound was formulated in 100% DMSO in a concentration gradient, and deposited to a 384-well plate with a final DMSO concentration of 1%.
(§3) 3. PI3Kα, PI3Kδ, PI3Kβ and PI3Kγ enzymes (purchased from EMD Millipore) were diluted to the optimal concentration with the following buffer: 50 mM HEPES, pH 7.5, 3 mM MgCl2, 1 mM EGTA, 100 mM NaCl, 0.03% CHAPS, 2 mM DTT, transferred to a 384-well plate and incubated with the compound for a certain time.
(§4) 4. The substrate was diluted to an optimal concentration with the following buffer: 50 mM HEPES, pH 7.5, 3 mM MgCl2, 1 mM EGTA, 100 mM NaCl, 0.03% CHAPS, 2 mM DTT, 50 μM PIP2, 25 μM ATP and added to the 384-well plate to initiate the reaction. PI3Kα, PI3Kβ and PI3Kγ were allowed to react for 1 h at room temperature, and PI3Kδ reacted for 2 hours at room temperature. Another 10 μL ADP-Glo Detection Reagent also needed to be added for PI3Kβ and PI3Kγ, and then equilibrated at room temperature for 30 minutes.
(§5) 5. Luminescence was read by using Flexstation, and the inhibition rate was calculated as the average value of two tests.

PI3Kα = PI3Kα (Homo sapiens (Human), UniProt P42336); assay: PI3Kα enzymatic inhibitory activity IC50 assay; format: biochemical; details: selectivity ratio
Chain of PI3Kα (P42336 whole entry, species assumed): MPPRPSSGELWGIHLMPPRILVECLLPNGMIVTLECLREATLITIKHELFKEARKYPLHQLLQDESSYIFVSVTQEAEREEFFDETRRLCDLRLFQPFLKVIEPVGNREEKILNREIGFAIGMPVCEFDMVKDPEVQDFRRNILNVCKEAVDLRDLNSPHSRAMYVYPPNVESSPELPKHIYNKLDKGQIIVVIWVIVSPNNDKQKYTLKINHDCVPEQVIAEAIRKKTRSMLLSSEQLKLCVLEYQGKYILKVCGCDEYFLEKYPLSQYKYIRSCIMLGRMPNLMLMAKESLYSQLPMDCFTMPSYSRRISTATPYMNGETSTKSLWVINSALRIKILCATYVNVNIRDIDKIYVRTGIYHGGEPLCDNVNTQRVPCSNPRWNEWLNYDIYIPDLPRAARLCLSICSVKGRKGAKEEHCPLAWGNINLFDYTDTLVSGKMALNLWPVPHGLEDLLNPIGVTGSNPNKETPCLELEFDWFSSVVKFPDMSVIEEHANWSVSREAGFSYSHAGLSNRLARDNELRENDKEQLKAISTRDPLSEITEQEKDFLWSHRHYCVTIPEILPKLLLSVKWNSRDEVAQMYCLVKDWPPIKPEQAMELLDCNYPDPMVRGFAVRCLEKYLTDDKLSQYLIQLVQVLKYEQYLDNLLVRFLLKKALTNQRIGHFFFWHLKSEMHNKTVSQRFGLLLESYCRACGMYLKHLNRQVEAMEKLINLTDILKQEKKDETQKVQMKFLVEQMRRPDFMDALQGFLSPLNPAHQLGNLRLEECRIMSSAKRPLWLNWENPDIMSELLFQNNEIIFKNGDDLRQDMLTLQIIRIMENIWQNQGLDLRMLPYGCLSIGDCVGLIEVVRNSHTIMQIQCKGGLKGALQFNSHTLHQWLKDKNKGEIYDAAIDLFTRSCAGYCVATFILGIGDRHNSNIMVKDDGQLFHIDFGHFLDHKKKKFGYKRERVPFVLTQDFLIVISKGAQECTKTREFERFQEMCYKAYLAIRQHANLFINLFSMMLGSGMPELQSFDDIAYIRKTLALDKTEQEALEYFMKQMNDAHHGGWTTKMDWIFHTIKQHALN
Chain of PI3Kα (P27986 whole entry partner, species assumed): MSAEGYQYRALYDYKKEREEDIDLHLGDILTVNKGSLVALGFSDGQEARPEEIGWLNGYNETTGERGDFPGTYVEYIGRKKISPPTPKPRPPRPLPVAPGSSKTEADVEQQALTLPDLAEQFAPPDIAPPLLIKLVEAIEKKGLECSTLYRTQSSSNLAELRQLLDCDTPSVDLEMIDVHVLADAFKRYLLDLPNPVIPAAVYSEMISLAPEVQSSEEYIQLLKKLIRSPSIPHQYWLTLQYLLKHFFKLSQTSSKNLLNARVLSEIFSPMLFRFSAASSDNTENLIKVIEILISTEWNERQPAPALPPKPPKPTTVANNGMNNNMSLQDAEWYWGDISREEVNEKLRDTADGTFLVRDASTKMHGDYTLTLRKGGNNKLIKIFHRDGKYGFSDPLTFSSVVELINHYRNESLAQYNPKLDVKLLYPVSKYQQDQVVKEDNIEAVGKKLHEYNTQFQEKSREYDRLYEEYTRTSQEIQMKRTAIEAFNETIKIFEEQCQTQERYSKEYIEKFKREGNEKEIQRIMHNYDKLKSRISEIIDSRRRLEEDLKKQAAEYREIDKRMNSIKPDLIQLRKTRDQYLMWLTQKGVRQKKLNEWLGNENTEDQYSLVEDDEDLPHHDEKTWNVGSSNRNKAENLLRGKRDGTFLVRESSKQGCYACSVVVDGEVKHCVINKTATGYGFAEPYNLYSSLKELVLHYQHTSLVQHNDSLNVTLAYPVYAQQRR
Procedure: as §1, §2, §3, §4, §5

[1] = system: Raji cell TNF-α generation; assay: Inhibition of human Raji cell TNF-α generation induced by human IgM (ELISA); format: cell-based; details: Raji cells, IgM stimulation, 24 hours
Procedure: 1. Raji cell line (human Burkitt's lymphoma origin) (ATCC, Cat#CCL-86) was used.
2. Raji cells were applied onto the 96-well plate with 1×10^5/well.
3. The compounds to be screened were diluted to the corresponding test concentration, and added to the cell culture system 30 minutes prior to IgM stimulation.
4. 10 µg/ml IgM monoclonal antibody (JACKSON, Cat#109-006-129) was added to the cell culture system in order to stimulate the cells generating TNF-α.
5. After 24 hours, the amount of TNF-α produced by the cell line was determined by ELISA.
6. The inhibition rates at each concentration of the compound were calculated and plotted to calculate 50% inhibition rate (IC50), and the specific results were shown in table 3.

PI3Kγ = PI3Kγ (Homo sapiens (Human), UniProt P48736); assay: PI3Kγ enzymatic inhibitory activity IC50 assay; format: biochemical; details: selectivity ratio
Chain of PI3Kγ (P48736 whole entry, species assumed): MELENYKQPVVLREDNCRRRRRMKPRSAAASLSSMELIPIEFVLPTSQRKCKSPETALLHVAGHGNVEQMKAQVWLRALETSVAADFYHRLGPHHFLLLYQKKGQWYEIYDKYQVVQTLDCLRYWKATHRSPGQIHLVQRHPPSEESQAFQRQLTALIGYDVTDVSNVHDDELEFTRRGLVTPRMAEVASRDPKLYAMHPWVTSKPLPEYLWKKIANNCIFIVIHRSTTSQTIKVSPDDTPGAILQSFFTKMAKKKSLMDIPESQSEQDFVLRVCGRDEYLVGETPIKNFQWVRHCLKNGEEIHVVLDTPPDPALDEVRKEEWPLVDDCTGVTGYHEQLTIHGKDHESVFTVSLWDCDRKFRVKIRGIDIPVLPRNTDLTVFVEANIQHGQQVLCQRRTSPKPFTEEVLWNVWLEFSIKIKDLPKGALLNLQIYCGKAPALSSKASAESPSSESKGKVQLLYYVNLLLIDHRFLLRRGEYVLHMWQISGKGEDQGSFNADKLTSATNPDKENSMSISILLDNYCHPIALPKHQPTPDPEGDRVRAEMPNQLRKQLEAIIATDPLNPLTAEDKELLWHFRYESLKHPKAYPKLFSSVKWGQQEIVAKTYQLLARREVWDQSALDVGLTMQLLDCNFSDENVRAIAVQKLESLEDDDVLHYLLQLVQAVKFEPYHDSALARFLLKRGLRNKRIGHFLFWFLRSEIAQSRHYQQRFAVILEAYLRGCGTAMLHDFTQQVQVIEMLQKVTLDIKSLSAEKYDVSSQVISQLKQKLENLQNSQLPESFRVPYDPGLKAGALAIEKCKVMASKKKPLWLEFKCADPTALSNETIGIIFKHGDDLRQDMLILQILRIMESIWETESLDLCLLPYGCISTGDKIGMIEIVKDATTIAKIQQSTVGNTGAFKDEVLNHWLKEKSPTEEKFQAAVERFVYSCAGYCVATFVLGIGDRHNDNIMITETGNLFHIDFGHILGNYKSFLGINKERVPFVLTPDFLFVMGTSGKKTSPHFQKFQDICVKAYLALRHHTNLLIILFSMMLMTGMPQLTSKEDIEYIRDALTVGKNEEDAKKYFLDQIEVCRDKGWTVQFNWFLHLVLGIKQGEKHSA
Procedure: as §1, §2, §3, §4, §5

PI3Kδ = PI3Kδ (Homo sapiens (Human), UniProt O00329); assay: PI3Kδ enzymatic inhibitory activity IC50 assay; format: biochemical; details: luminescence readout, 25 μM ATP, 50 μM PIP2, 2 hours at room temperature
Chain of PI3Kδ (O00329 whole entry, species assumed): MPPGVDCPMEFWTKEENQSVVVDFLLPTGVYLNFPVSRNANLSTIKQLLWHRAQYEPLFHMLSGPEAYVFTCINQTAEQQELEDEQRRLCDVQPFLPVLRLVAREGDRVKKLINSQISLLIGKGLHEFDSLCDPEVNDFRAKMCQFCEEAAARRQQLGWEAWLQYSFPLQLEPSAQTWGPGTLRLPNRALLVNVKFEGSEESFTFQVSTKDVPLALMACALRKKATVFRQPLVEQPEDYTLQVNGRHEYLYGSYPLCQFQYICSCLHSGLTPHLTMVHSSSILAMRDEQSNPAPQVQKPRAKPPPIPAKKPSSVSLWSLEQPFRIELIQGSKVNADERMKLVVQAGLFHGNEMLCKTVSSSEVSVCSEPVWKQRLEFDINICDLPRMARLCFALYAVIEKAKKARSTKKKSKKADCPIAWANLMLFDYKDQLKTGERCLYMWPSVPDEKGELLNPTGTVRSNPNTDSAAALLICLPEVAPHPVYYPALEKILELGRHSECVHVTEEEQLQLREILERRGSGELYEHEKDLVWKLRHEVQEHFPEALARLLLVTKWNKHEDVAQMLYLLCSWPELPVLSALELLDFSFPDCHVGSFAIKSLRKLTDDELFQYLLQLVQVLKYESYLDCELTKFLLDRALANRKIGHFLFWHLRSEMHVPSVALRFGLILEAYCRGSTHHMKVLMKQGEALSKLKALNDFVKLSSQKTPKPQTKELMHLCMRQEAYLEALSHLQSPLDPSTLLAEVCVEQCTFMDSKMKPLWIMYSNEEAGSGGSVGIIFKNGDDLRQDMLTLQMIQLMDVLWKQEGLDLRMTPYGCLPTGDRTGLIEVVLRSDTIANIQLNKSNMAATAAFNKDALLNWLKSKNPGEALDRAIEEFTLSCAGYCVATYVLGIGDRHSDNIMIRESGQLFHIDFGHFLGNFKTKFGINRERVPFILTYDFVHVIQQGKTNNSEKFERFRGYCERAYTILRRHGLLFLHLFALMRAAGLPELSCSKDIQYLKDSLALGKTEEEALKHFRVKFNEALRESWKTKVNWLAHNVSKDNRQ
Chain of PI3Kδ (P27986 whole entry partner, species assumed): as the sequence (P27986 whole entry partner, species assumed) above
Procedure: as §1, §2, §3, §4, §5

Chain of PI3Kβ (P42338 whole entry, species assumed): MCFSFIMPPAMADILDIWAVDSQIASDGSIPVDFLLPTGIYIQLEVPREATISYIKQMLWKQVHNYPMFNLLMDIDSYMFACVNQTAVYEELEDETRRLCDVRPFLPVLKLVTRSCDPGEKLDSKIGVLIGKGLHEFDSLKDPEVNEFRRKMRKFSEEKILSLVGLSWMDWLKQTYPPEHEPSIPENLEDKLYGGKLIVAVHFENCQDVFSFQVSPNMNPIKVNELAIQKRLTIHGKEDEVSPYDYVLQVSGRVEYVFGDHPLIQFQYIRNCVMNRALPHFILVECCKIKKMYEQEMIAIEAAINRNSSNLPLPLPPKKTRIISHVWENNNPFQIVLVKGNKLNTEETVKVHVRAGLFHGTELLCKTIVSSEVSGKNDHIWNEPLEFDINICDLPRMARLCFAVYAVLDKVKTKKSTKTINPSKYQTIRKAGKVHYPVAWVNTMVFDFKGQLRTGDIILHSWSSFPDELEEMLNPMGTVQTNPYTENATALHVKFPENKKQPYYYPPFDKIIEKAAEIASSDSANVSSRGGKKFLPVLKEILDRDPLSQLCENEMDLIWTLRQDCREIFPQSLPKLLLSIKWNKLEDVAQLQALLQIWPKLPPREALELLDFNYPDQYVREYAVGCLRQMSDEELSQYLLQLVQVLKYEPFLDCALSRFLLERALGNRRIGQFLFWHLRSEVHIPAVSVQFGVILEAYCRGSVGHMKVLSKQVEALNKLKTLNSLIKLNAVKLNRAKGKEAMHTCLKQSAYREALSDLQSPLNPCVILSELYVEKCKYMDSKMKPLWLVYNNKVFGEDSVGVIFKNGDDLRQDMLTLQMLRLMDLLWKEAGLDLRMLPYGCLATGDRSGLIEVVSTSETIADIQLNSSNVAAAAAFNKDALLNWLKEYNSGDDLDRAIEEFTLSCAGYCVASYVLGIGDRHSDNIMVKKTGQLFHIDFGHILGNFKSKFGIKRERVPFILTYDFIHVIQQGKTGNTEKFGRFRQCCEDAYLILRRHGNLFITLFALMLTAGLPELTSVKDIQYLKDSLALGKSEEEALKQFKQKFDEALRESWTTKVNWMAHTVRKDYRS
Chain of PI3Kβ (P27986 whole entry partner, species assumed): as the sequence (P27986 whole entry partner, species assumed) above

Compound | β/δ (ratio of IC50 values against PI3Kβ to PI3Kδ) (PI3Kβ) | α/δ (ratio of IC50 values against PI3Kα to PI3Kδ) (PI3Kα) | IC50 [1] | γ/δ (ratio of IC50 values against PI3Kγ to PI3Kδ) (PI3Kγ) | IC50 (PI3Kδ)
COc1ncc(-c2nc(N3CCOCC3)nc3c(OC4CCC(N5CCCCC5)CC4)cc(F)cc23)cc1NS(C)(=O)=O (stereo not shown) [Compound 34] | 360 | 202 | 66 nM | >549 | 18.2 nM
COc1ncc(-c2nc(N3CCOCC3)nc3c(CN4CCC(C(C)(C)O)CC4)cc(F)cc23)cc1NS(C)(=O)=O [Compound 10] | 31 | 320 | 66 nM | >1000 | 6.4 nM
COc1ncc(-c2nc(N3CCOCC3)nc3c(CN4CCC(N5CCCCC5)CC4)cc(F)cc23)cc1NS(C)(=O)=O [Compound 7] | 166 | 130 | 34.8 nM | >322 | 31 nM
COc1ncc(-c2nc(N3CCOCC3)nc3c(CN4CCC(N5CCCCC5=O)CC4)cc(F)cc23)cc1NS(C)(=O)=O [Compound 23] | 40 | 79 | 88.7 nM | >625 | 16 nM
COc1ncc(-c2nc(N3CCOCC3)nc3c(OC4CCC(N5CCCCC5)CC4)cc(F)cc23)cc1NS(C)(=O)=O (stereo not shown) [Compound 35] | 322 | 227 | 105 nM | >500 | 20 nM
